# Assay results taken from PubChem BioAssay AID330 (DTP/NCI, 2004).
# Where “and” joins values, the source holds several entries; their conditions need not be identical. Equal entries are not always repeated. Inconclusive results and toxic doses are left out.
# Test system: P388 leukemia ip, CD2F1 mice, survival T/C
# Test: NCI In Vivo Anticancer Drug Screen. Data for tumor model P388 Leukemia (intraperitoneal) in CD2F1 (CDF1) mice
# Conditions: endpoint: median survival time, higher = longer survival
# Summary of the method: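 Mice carrying the transplanted tumor received test compound or vehicle. Survival was recorded in each group, and the value is the treated-group measurement divided by that of the vehicle-treated control group.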
# [1] = dose: 200.0 mg/kg/injection, schedule: Q04DX002 (ip), vehicle: saline with Tween-80
# [2] = dose: 400.0 mg/kg/injection, schedule: Q04DX002 (ip), vehicle: saline with Tween-80
# [3] = dose: 50.0 mg/kg/injection, schedule: Q01DX005 (ip), vehicle: Klucel (hydroxypropylcellulose) (HPC)
# [4] = dose: 100.0 mg/kg/injection, schedule: Q01DX005 (ip), vehicle: Klucel (hydroxypropylcellulose) (HPC)
# [5] = dose: 200.0 mg/kg/injection, schedule: Q01DX005 (ip), vehicle: Klucel (hydroxypropylcellulose) (HPC)
# [6] = dose: 50.0 mg/kg/injection, schedule: Q01DX009 (ip), vehicle: Klucel (hydroxypropylcellulose) (HPC)
# [7] = dose: 60.0 mg/kg/injection, schedule: Q01DX005 (ip), vehicle: saline with Tween-80
# [8] = dose: 120.0 mg/kg/injection, schedule: Q01DX005 (ip), vehicle: saline with Tween-80
# [9] = dose: 240.0 mg/kg/injection, schedule: Q01DX005 (ip), vehicle: saline with Tween-80
# [10] = dose: 6.25 mg/kg/injection, schedule: Q01DX009 (ip), vehicle: Klucel (hydroxypropylcellulose) (HPC)
# [11] = dose: 12.5 mg/kg/injection, schedule: Q01DX009 (ip), vehicle: Klucel (hydroxypropylcellulose) (HPC)
# [12] = dose: 25.0 mg/kg/injection, schedule: Q01DX009 (ip), vehicle: Klucel (hydroxypropylcellulose) (HPC)
# [13] = dose: 50.0 mg/kg/injection, schedule: Q04DX003 (ip), vehicle: saline with Tween-80
# [14] = dose: 100.0 mg/kg/injection, schedule: Q04DX003 (ip), vehicle: saline with Tween-80
# [15] = dose: 60.0 mg/kg/injection, schedule: Q01DX005 (ip), vehicle: Klucel (hydroxypropylcellulose) (HPC)
# [16] = dose: 120.0 mg/kg/injection, schedule: Q01DX005 (ip), vehicle: Klucel (hydroxypropylcellulose) (HPC)
structure (smiles),measurement,setting,value
Brc1ccc(N=C2N=C(Nc3ccc(Br)cn3)c3ccccc32)nc1,T/C,"dose: 12.5 mg/kg/injection, schedule: Q04DX002 (ip), vehicle: saline with Tween-80",100 % of control
same,T/C,"dose: 25.0 mg/kg/injection, schedule: Q04DX002 (ip), vehicle: saline with Tween-80",94 % of control
same,T/C,"dose: 50.0 mg/kg/injection, schedule: Q04DX002 (ip), vehicle: saline with Tween-80",90 % of control
same,T/C,[1],91 % of control
same,T/C,[2],106 % of control
C=Cc1c(Cl)nc(C)c(C)c1-c1ccc(OC)c(OC)c1OCc1ccccc1,T/C,[3],92 % of control
same,T/C,[4],104 % of control
same,T/C,[5],91 % of control
COP1(=O)CC(=O)C(C)(C)N1C (stereo not drawn),T/C,[3],101 % of control
same,T/C,[4],107 % of control
same,T/C,[5],111 % of control
CCc1noc2cc(-c3ccccc3)n(C)c(=O)c12,T/C,[3],100 % of control
same,T/C,[4],104 % of control
same,T/C,[5],105 % of control
NC(=O)c1nc2ccccn2c1[N+](=O)[O-],T/C,[6],99 % of control
same,T/C,"dose: 100.0 mg/kg/injection, schedule: Q01DX009 (ip), vehicle: Klucel (hydroxypropylcellulose) (HPC)",101 % of control
same,T/C,"dose: 200.0 mg/kg/injection, schedule: Q01DX009 (ip), vehicle: Klucel (hydroxypropylcellulose) (HPC)",108 % of control
COC1(C)C(=O)N(C)C1c1ccccc1 (stereo not drawn),T/C,[7],100 % of control
same,T/C,[8],97 % of control
same,T/C,[9],100 % of control
COC(=O)C1=CSCCC1=O,T/C,[3],105 % of control
same,T/C,[4],106 % of control
same,T/C,[5],117 % of control
O=C(NC(=S)Nc1ccc(CCO)cc1)c1cccc(Br)c1,T/C,"dose: 3.75 mg/kg/injection, schedule: Q01DX005 (ip), vehicle: saline with Tween-80",91 % of control
same,T/C,"dose: 7.5 mg/kg/injection, schedule: Q01DX005 (ip), vehicle: saline with Tween-80",90 % of control
same,T/C,"dose: 15.0 mg/kg/injection, schedule: Q01DX005 (ip), vehicle: saline with Tween-80",87 % of control
same,T/C,[9],92 % of control
Cc1cc(NCCCCCCCCNc2cc(C)nc3cc([N+](=O)[O-])ccc23)c2ccc([N+](=O)[O-])cc2n1,T/C,"dose: 12.5 mg/kg/injection, schedule: Q01DX009 (ip), vehicle: water",110 % of control
same,T/C,"dose: 25.0 mg/kg/injection, schedule: Q01DX009 (ip), vehicle: water",101 % of control
O=S(=O)(N/N=C/c1ccncc1)c1ccccc1,T/C,"dose: 12.5 mg/kg/injection, schedule: Q01DX009 (ip), vehicle: other",110 % of control and 121 % of control
same,T/C,"dose: 25.0 mg/kg/injection, schedule: Q01DX009 (ip), vehicle: other",116 % of control
same,T/C,"dose: 100.0 mg/kg/injection, schedule: Q01DX009 (ip), vehicle: other",157 % of control
O=C(CCS(=O)(=O)CCC(=O)c1ccccc1)c1ccccc1,T/C,"dose: 100.0 mg/kg/injection, schedule: Q04DX003 (ip), vehicle: saline",90 % of control
same,T/C,"dose: 200.0 mg/kg/injection, schedule: Q04DX003 (ip), vehicle: saline",89 % of control
same,T/C,"dose: 400.0 mg/kg/injection, schedule: Q04DX003 (ip), vehicle: saline",88 % of control
O=C1C=CC2=Cc3ccccc3CN12,T/C,[7],100 % of control
same,T/C,[8],100 % of control
same,T/C,[9],100 % of control
Cc1nn(C(=O)c2ccncc2)c(C)c1N=Nc1ccccc1Cl,T/C,"dose: 100.0 mg/kg/injection, schedule: Q04DX003 (ip), vehicle: Klucel (hydroxypropylcellulose) (HPC)",96 % of control
same,T/C,"dose: 200.0 mg/kg/injection, schedule: Q04DX003 (ip), vehicle: Klucel (hydroxypropylcellulose) (HPC)",95 % of control
same,T/C,"dose: 400.0 mg/kg/injection, schedule: Q04DX003 (ip), vehicle: Klucel (hydroxypropylcellulose) (HPC)",97 % of control
COc1cc(CC(OC)OC)no1,T/C,[7],102 % of control
same,T/C,[8],103 % of control
same,T/C,[9],102 % of control
NCCNCC(O)CO (stereo not drawn),T/C,"dose: 50.0 mg/kg/injection, schedule: Q01DX005 (ip), vehicle: saline + Tween-80 + alcohol",102 % of control
same,T/C,"dose: 100.0 mg/kg/injection, schedule: Q01DX005 (ip), vehicle: saline + Tween-80 + alcohol",102 % of control
same,T/C,"dose: 200.0 mg/kg/injection, schedule: Q01DX005 (ip), vehicle: saline + Tween-80 + alcohol",99 % of control
c1ccc(N2CCCCCN2c2ccccc2)cc1,T/C,"dose: 25.0 mg/kg/injection, schedule: Q01DX001 (ip), vehicle: saline with Tween-80",100 % of control
same,T/C,"dose: 50.0 mg/kg/injection, schedule: Q01DX001 (ip), vehicle: saline with Tween-80",100 % of control
same,T/C,"dose: 100.0 mg/kg/injection, schedule: Q01DX001 (ip), vehicle: saline with Tween-80",100 % of control
same,T/C,"dose: 200.0 mg/kg/injection, schedule: Q01DX001 (ip), vehicle: saline with Tween-80",92 % of control
CCOC(=O)c1no[n+]([O-])c1C(=O)OCC,T/C,[10],103 % of control
same,T/C,[11],105 % of control
same,T/C,[12],101 % of control
same,T/C,[6],86 % of control
CCCCCCCCCCCCCCCC(=O)OCCCCCCCCCCC,T/C,"dose: 25.0 mg/kg/injection, schedule: Q04DX003 (ip), vehicle: saline with Tween-80",113 % of control
same,T/C,[13],95 % of control
same,T/C,[14],90 % of control
COc1cc2c(cc1OC)C1C(=O)c3c(O)cc4c(c3OC1CO2)C=CC(C)(C)O4 (stereo not drawn),T/C,"dose: 12.5 mg/kg/injection, schedule: Q01DX005 (ip), vehicle: Klucel (hydroxypropylcellulose) (HPC)",98 % of control
same,T/C,"dose: 25.0 mg/kg/injection, schedule: Q01DX005 (ip), vehicle: Klucel (hydroxypropylcellulose) (HPC)",100 % of control
same,T/C,[3],107 % of control
same,T/C,[4],107 % of control
same,T/C,[5],111 % of control
same,T/C,"dose: 400.0 mg/kg/injection, schedule: Q01DX005 (ip), vehicle: Klucel (hydroxypropylcellulose) (HPC)",111 % of control
CC1=C(C(N)=O)C(/C=C/c2ccccc2)NC(=S)N1 (stereo not drawn),T/C,[15],106 % of control
same,T/C,[16],100 % of control
same,T/C,"dose: 240.0 mg/kg/injection, schedule: Q01DX005 (ip), vehicle: Klucel (hydroxypropylcellulose) (HPC)",100 % of control
CCCN1C[C@H](CSC)C[C@@H]2c3cccc4[nH]cc(c34)C[C@H]21,T/C,[10],103 % of control
same,T/C,[11],101 % of control
same,T/C,[12],99 % of control
O=C(c1ccccc1)N1C=CN(C(=O)c2ccccc2)C(c2ccccc2)C1c1ccccc1 (stereo not drawn),T/C,[15],88 % of control
same,T/C,[16],90 % of control
CC(=O)SCCCCl,T/C,[13],100 % of control
same,T/C,[14],109 % of control
same,T/C,"dose: 200.0 mg/kg/injection, schedule: Q04DX003 (ip), vehicle: saline with Tween-80",109 % of control
COc1ccc2c(c1OC)C(=O)OC2C1c2cc3c(cc2CC[N+]1(C)C)OCO3 (stereo not drawn),T/C,"dose: 12.5 mg/kg/injection, schedule: Q01DX001 (ip), vehicle: Klucel (hydroxypropylcellulose) (HPC)",88 % of control
same,T/C,"dose: 25.0 mg/kg/injection, schedule: Q01DX001 (ip), vehicle: Klucel (hydroxypropylcellulose) (HPC)",92 % of control
same,T/C,"dose: 50.0 mg/kg/injection, schedule: Q01DX001 (ip), vehicle: Klucel (hydroxypropylcellulose) (HPC)",87 % of control
CN(C)CC(O)C(=O)O (stereo not drawn),T/C,"dose: 25.0 mg/kg/injection, schedule: Q01DX005 (ip), vehicle: saline",96 % of control
same,T/C,"dose: 50.0 mg/kg/injection, schedule: Q01DX005 (ip), vehicle: saline",98 % of control
same,T/C,"dose: 100.0 mg/kg/injection, schedule: Q01DX005 (ip), vehicle: saline",95 % of control
same,T/C,"dose: 200.0 mg/kg/injection, schedule: Q01DX005 (ip), vehicle: saline",96 % of control
CSc1ccccc1C(=O)O,T/C,"dose: 100.0 mg/kg/injection, schedule: Q04DX002 (ip), vehicle: saline with Tween-80",104 % of control
same,T/C,[1],101 % of control
same,T/C,[2],102 % of control
C=C1C(=O)O[C@H]2CC(C)C3C[C@@H](O)OC(O)[C@]3(C)C[C@@H]12 (stereo partly drawn),T/C,"dose: 2.38 mg/kg/injection, schedule: Q01DX005 (ip), vehicle: Klucel (hydroxypropylcellulose) (HPC)",101 % of control
same,T/C,"dose: 4.75 mg/kg/injection, schedule: Q01DX005 (ip), vehicle: Klucel (hydroxypropylcellulose) (HPC)",111 % of control
same,T/C,"dose: 9.5 mg/kg/injection, schedule: Q01DX005 (ip), vehicle: Klucel (hydroxypropylcellulose) (HPC)",102 % of control
